Each structure is given as a SMILES string.

The term Ki denotes the equilibrium dissociation constant of an inhibitor or competing ligand from its target. By EC50 is commonly meant the concentration giving half of the maximal effect. Read a low EC50 as higher potency in that assay.

The target in assay [1] is T1, human mu opioid receptor (MOR) (Homo sapiens, UniProt P35372).
T1 construct: gene OPRM1; full-length receptor expressed in CHO cells; membranes
As to the kind of experiment: competition radioligand binding, 3H-diprenorphine, membranes. To be noted: room temperature, 1 h, one-site fit; unreliable.

The target in assay [2] is T2, human kappa opioid receptor (KOR) (Homo sapiens, UniProt P41145).
T2 construct: gene OPRK1; full-length receptor expressed in CHO cells; membranes
Described as above.

For assay [3], the target named is T3, human DOR (delta opioid receptor) (Homo sapiens, UniProt P41143).
T3 construct: gene OPRD1; full-length receptor expressed in CHO-K1 cells
Kind of assay: cAMP accumulation, live DOR-CHO cells. It is filed as cell-based.

Assay [4] deals with T3, human DOR (delta opioid receptor). As to the kind of experiment: competition radioligand binding, 3H-diprenorphine, membranes.
Assay [5] shares this target. Kind of assay: […]-GTPgammaS coupling, membranes. In kind it is biochemical. As to conditions: antagonist mode against SNC80 curve; 30 °C, 1 h, 40 uM GDP; proposed covalent / irreversible.

For `O=C(C1CC1)N1CC[C@]23c4c5ccc(O)c4O[C@H]2c2[nH]c4ccccc4c2C[C@@]3(O)[C@H]1C5` [SYK-623, Cyclopropyl((4bS,8R,8aS,14bR)-1,8a-dihydroxy-5,6,8a,9,14,14b-hexahydro-4,8-methanobenzofuro[2,3−a]pyrido [4,3−b]carbazol-7(8H)-yl)methanone], the KI in assay [1] was > 3,333 nM. In addition, the Ki came to 2 ± 0.29 µM in assay [2] and 0.011 ± 0.001 µM in assay [4]. It took 0.265 µM to reach a half-maximal effect in assay [3] (EC50).

Consider `O=C(C1CC1)N1CC[C@]23c4c5ccc(O)c4O[C@H]2c2ncc(-c4ccc(Cl)cc4)cc2C[C@@]3(O)[C@H]1C5` [SRI-45128, ((4bS,8R,8aS,13bR)-11-(4-Chlorophenyl)-1,8a-dihydroxy-5,6,8,8a,9,13b-hexahydro-7H-4,8-methanobenzofuro[3,2-h]pyrido[3,4-g]quinolin-7-yl)(cyclopropyl)methanone], for which the KI in assay [1] is listed as > 3,333 nM. Moreover, the Ki worked out at 2.5 ± 0.51 µM in assay [2] and 0.024 ± 0.002 µM in assay [4]. In assay [3], this compound gave an EC50 of 0.77 µM.

Turning to `Oc1ccc2c3c1O[C@H]1c4[nH]c5ccc(/C=C/c6ccccn6)cc5c4C[C@@]4(O)[C@@H](C2)N(CC2CC2)CC[C@]314` [SRI-9342, (4bS,8R,8aS,14bR)-7-(Cyclopropylmethyl)-11-((E)-2-(pyridin-2-yl)vinyl)-5,6,7,8,14,14b-hexahydro-4,8-methanobenzofuro [2,3-a]pyrido[4,3-b]carbazole-1,8a(9H)-diol], in assay [5], the “% SNC80 efficacy (EMAX) at 1 nM” value came out at 84%.

These data come from paper PMC8587863, “Discovery of Novel Delta Opioid Receptor (DOR) Inverse Agonist and Irreversible (Non-Competitive) Antagonists” (Molecules, 2021).
